Drawing on PubChem BioAssay (NCI), this text covers TGI and GI50 for 30 compounds.

Structures are written as SMILES.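 Compound exposure: 48 hours, 5 concentrations, 96-well plates. GI50 is the concentration that inhibits growth by half. TGI: total growth inhibition.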

The first assay relates to MDA-N. Nature of the assay: growth of human tumour cells (NCI), 48 h.
In turn, `O=C1c2ccccc2-c2c1c(-c1ccc(F)cc1)nc1ccc3ccccc3c21` had a TGI of more than 100 µM.

On to `O=C(O)CCC(=O)OC1N=C(c2ccccc2Cl)c2cc([N+](=O)[O-])ccc2NC1=O` (stereo not given), for which the TGI is more than 100 µM.

For the compound `CCOC(=O)c1ccc(NCC#CCN2CCOCC2)cc1`, the TGI is more than 100 µM.

In turn, `COc1ccc(-c2nc(SCC(=O)N/N=C/c3ccc(N(C)C)cc3)[nH]c2-c2ccc(OC)cc2)cc1` returned a TGI of more than 100 µM.

With `CS(=O)(=O)OCC(CCl)(CCl)CCl`, the TGI was more than 100 µM.

`C=CCSc1nnc2cc(CN3CCCC3)c(-c3ccc(Cl)cc3)nn12`: the TGI came out at 34.2 µM.

`CCOC(=O)c1cn2c(nc1=O)N[C@H]1CCCC[C@@H]12` came in with a TGI of more than 100 µM.

In turn, `Cc1ccc(C(=C2Sc3ccccc3S2)C(=C2Sc3ccccc3S2)c2ccc(C)s2)s1` returned a TGI of more than 100 µM.

For `CSC(=S)N(C)C`, the TGI was more than 100 µM.

`COP(=O)(/C=C/c1cc(C(=O)OCc2ccccc2)n(S(=O)(=O)c2ccccc2)c1)OC` showed a TGI of more than 100 µM.

`CCC1(CC)C(=O)NN(C(=O)c2ccccc2)C1=O`: the TGI was more than 100 µM.

Turning to `Cc1cc(C(=O)CCCCOc2ccc(C3=NCCO3)cc2)c(C)n1C`, the TGI turned out to be 88 µM.

In turn, `COc1cc(/C=C/C(=O)CC(=O)/C=C/c2ccc(OC(=O)CCCCC3CCSS3)c(OC)c2)ccc1OC(=O)CCCCC1CCSS1` (stereo not given) came in with a TGI of more than 100 µM.

In the next assay the test system is CAKI-1 renal. The assay can be described thus: growth of human tumour cells (NCI), 48 h.
On to `NS(=O)(=O)c1cc2c(cc1Cl)NC(CCC(=O)O)=NS2(=O)=O`, for which the TGI is more than 100 µM.

`CC(=O)Nc1nc(C#N)[nH]c1C#N`: the TGI was more than 100 µM.

The compound `O=C(O)/C=C(/C(=O)O)C12CCN3CC4=CCOC5CC(=O)NC1C5C4CC32` (stereo not given) had a TGI of more than 100 µM.

Consider `CC1CCC(C(=O)O)(C(Br)C(=O)O)CC1` (stereo not given), for which the TGI was more than 100 µM.

Compound `Cc1cc(N(CCOS(C)(=O)=O)CCOS(C)(=O)=O)ccc1C=O` registered a TGI of 1.25 µM.

For the compound `O=c1[nH]c(=O)n(C2OC(CO)C(O)C2O)c2nc(-c3ccc(-c4ccccc4)cc3)cnc12` (stereo not given), the TGI is more than 100 µM.

As for `CCOP(=O)(OCC)C(c1ccc(F)cc1)N(C(=O)NC(F)(F)F)c1ccc(OC)cc1` (stereo not given), the TGI was more than 100 µM.

Regarding `CCOC(=O)c1c(C)nc2c3ccccc3c(C#N)c(C)n12`, the TGI is more than 100 µM.

With `Cc1cc2c3c(nc4ccccc42)C(=O)c2ccccc2-c3n1`, the TGI turned out to be 60.7 µM.

Consider `O=C1c2ccccc2-c2c1c(-c1ccc(F)cc1)nc1ccc3ccccc3c21`, for which the TGI was more than 100 µM.

With `O=C(O)CCC(=O)OC1N=C(c2ccccc2Cl)c2cc([N+](=O)[O-])ccc2NC1=O` (stereo not given), the TGI was more than 100 µM.

For `CO[C@H]1/C=C(/C)CCC[C@H](C)[C@H](O)[C@@H](C)C(=O)C(C)(C)[C@@H](O)CC(=O)O[C@@H]1/C(C)=C/c1csc(C)n1`, the GI50 was 0.0238 µM and the TGI is more than 100 µM.

Turning to `COc1ccc(-c2nc(SCC(=O)N/N=C/c3ccc(N(C)C)cc3)[nH]c2-c2ccc(OC)cc2)cc1`, the TGI is more than 100 µM.

For `C=CCSc1nnc2cc(CN3CCCC3)c(-c3ccc(Cl)cc3)nn12`, the TGI turned out to be 77.5 µM.

With `CCOC(=O)c1cn2c(nc1=O)N[C@H]1CCCC[C@@H]12`, the TGI was more than 100 µM.

The compound `CN(C)c1ccc(C(=N/N=C2\C(=O)Nc3ccccc32)c2ccc(N(C)C)cc2)cc1` returned a TGI of 19.7 µM.

`Cc1ccc(C(=C2Sc3ccccc3S2)C(=C2Sc3ccccc3S2)c2ccc(C)s2)s1` gave a TGI of more than 100 µM.

In the case of `CSC(=S)N(C)C`, the TGI is more than 100 µM.

For the compound `CCN(CC)CCN(C(=Nc1ccccc1)N1CCOCC1)c1ccccc1`, the TGI was more than 100 µM.

Compound `COP(=O)(/C=C/c1cc(C(=O)OCc2ccccc2)n(S(=O)(=O)c2ccccc2)c1)OC` came in with a TGI of more than 100 µM.

In the case of `CCC1(CC)C(=O)NN(C(=O)c2ccccc2)C1=O`, the TGI was more than 100 µM.

For the compound `COc1ccc(NC(=O)CC(=O)N2N=C(N3c4ccccc4Sc4ccccc43)CC2c2ccccc2)cc1` (stereo not given), the TGI was more than 100 µM.

Turning to `Cc1cc(C(=O)CCCCOc2ccc(C3=NCCO3)cc2)c(C)n1C`, the TGI was more than 100 µM.

In the case of `[O-][n+]1ccccc1Sc1nc(Sc2cccc[n+]2[O-])nc(Sc2cccc[n+]2[O-])n1`, the TGI was 2.11 µM.

`CN(C)C1(N(C)C)Oc2c(c(=O)n(C)c(=O)n2C)C(c2ccc(Br)cc2)C1(F)F` (stereo not given) gave a TGI of more than 100 µM.

With `CSc1nsc(-c2ccccc2)[s+]1`, the TGI was more than 100 µM.

For another assay, the system named is HL-60(TB) leukemia. The assay can be described thus: growth of human tumour cells (NCI), 48 h.
For `CC(=O)Nc1nc(C#N)[nH]c1C#N`, the TGI was more than 100 µM.

In turn, `O=C(O)/C=C(/C(=O)O)C12CCN3CC4=CCOC5CC(=O)NC1C5C4CC32` (stereo not given) came in with a TGI of more than 100 µM.

Compound `CC1CCC(C(=O)O)(C(Br)C(=O)O)CC1` (stereo not given) yielded a TGI of more than 100 µM.

`Cc1cc(N(CCOS(C)(=O)=O)CCOS(C)(=O)=O)ccc1C=O` came in with a TGI of more than 100 µM.

`CCOP(=O)(OCC)C(c1ccc(F)cc1)N(C(=O)NC(F)(F)F)c1ccc(OC)cc1` (stereo not given) registered a TGI of more than 100 µM.

Turning to `CCOC(=O)c1c(C)nc2c3ccccc3c(C#N)c(C)n12`, the TGI is more than 100 µM.

For `O=C(O)CCC(=O)OC1N=C(c2ccccc2Cl)c2cc([N+](=O)[O-])ccc2NC1=O` (stereo not given), the TGI was more than 100 µM.

As to `CO[C@H]1/C=C(/C)CCC[C@H](C)[C@H](O)[C@@H](C)C(=O)C(C)(C)[C@@H](O)CC(=O)O[C@@H]1/C(C)=C/c1csc(C)n1`, the GI50 is less than 0.01 µM and the TGI is more than 100 µM.

In turn, `CCOC(=O)c1ccc(NCC#CCN2CCOCC2)cc1` yielded a TGI of more than 100 µM.

Compound `COc1ccc(-c2nc(SCC(=O)N/N=C/c3ccc(N(C)C)cc3)[nH]c2-c2ccc(OC)cc2)cc1` registered a TGI of more than 100 µM.

`C=CCSc1nnc2cc(CN3CCCC3)c(-c3ccc(Cl)cc3)nn12` displayed a TGI of 43.5 µM.

Take `CCOC(=O)c1cn2c(nc1=O)N[C@H]1CCCC[C@@H]12`: the TGI is more than 100 µM.

The compound `CN(C)c1ccc(C(=N/N=C2\C(=O)Nc3ccccc32)c2ccc(N(C)C)cc2)cc1` registered a TGI of 7.4 µM.

As for `Cc1ccc(C(=C2Sc3ccccc3S2)C(=C2Sc3ccccc3S2)c2ccc(C)s2)s1`, the TGI is more than 100 µM.

The compound `CSC(=S)N(C)C` gave a TGI of more than 100 µM.

In the case of `COc1ccc(C2=N/C(=C\c3ccccc3)C(=O)O2)cc1`, the TGI came out at 31 µM.

As for `CCN(CC)CCN(C(=Nc1ccccc1)N1CCOCC1)c1ccccc1`, the TGI is more than 100 µM.

In turn, `COP(=O)(/C=C/c1cc(C(=O)OCc2ccccc2)n(S(=O)(=O)c2ccccc2)c1)OC` came in with a TGI of more than 100 µM.

As for `CCC1(CC)C(=O)NN(C(=O)c2ccccc2)C1=O`, the TGI is more than 100 µM.

In the case of `COc1ccc(NC(=O)CC(=O)N2N=C(N3c4ccccc4Sc4ccccc43)CC2c2ccccc2)cc1` (stereo not given), the TGI is more than 100 µM.

`Cc1cc(C(=O)CCCCOc2ccc(C3=NCCO3)cc2)c(C)n1C` showed a TGI of 23.7 µM.

`COc1cc(/C=C/C(=O)CC(=O)/C=C/c2ccc(OC(=O)CCCCC3CCSS3)c(OC)c2)ccc1OC(=O)CCCCC1CCSS1` (stereo not given) had a TGI of more than 100 µM.

Turning to `[O-][n+]1ccccc1Sc1nc(Sc2cccc[n+]2[O-])nc(Sc2cccc[n+]2[O-])n1`, the TGI was more than 100 µM.

In the case of `CSc1nsc(-c2ccccc2)[s+]1`, the TGI is more than 100 µM.
